According to patent US12600696B2 (XENIOPRO GMBH, priority 2017, dated 2026):

Columns and labels:
Assay type in all cases: cell-based
[1] = system: HPEKp cells (human epidermal keratinocyte progenitors, pooled); experiment: alamarBlue proliferation assay with HPEKp cells; settings: 120 h, relative to DMSO basis level 1.0, read-out: weighted arithmetic mean (AVEw) of normalized fluorescence intensity, activity range
Summary of the method: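 Pooled HPEKp cells in CnT-Prime medium, 2000 cells/well, were exposed to compound at 0.1% DMSO for 5 days. Growth was read by alamarBlue fluorescence (ex 560, em 590 nm) and normalized to the DMSO mean, with outliers excluded, as a weighted mean ± combined SD. Inhibition was judged at 10 μM, with mean+SD ≤0.9 as the criterion.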

[2] = system: C2C12 cells (murine myoblast cells); experiment: alamarBlue proliferation assay with C2C12 cells; settings: 40 μM, 3 days treatment, single assay (preliminary), relative to DMSO basis level 1.0
Experimental: Compounds were tested on C2C12 cells using the alamarBlue® proliferation assay in analogy to the above described method with seeding the cells at an initial number of 2000 cells per 96-well and a duration of treatment with compounds for 3 days.
In one embodiment, two compounds of the invention were found so far to inhibit the growth of C2C12 cells (murine myoblast cells) obtainable from the Deutsche Sammlung von Mikroorganismen and Zellkulturen GmbH (DSMZ) under the accession number ACC 565. C2C12 cells were cultivated according to the protocol of the provider in RPMI 1640 medium (Fisherscientific, #11554526) containing 10% fetal bovine serum (Fisherscientific, #15517589).
A compound is considered as a growth inhibitor of C2C12 cells, if—at a reference concentration of 40 μM—the equally weighted arithmetic mean (AVE) of the six normalized fluorescence intensity values after addition of the corresponding standard deviation amounts to 0.9 or lower, in particular to 0.8 or lower, 0.7 or lower, 0.6 or lower, 0.4 or lower, and 0.2 or lower, relative to the overall basis level of 1.0. The overall basis level was calculated as the equally weighted arithmetic mean (AVE) of the six normalized values from the DMSO control measurements in analogy to the calculations performed for the test-compounds. […]

[3] = system: HeLa cells (human cervical adenocarcinoma cells); experiment: alamarBlue proliferation assay with HeLa cells; settings: relative to DMSO basis level 1.0
Experimental: The antiproliferative activities of compounds falling under formula I, formula II, formula III, formula IV and formula V were investigated on cells or cell lines originating from a disorder of the myeloid cell compartment, the neuroendocrine system, the cervix, and the mucosal epithelium, as well as from the skin epithelium. To this end, HL-60 cells, TT cells, HeLa cells, CAL-27 cells and human primary epidermal keratinocytes (HPEK) were seeded into 96-well plates suitable for fluorescence assays (CORNING #3598) at following initial cell numbers: 1000 cells per well for HL-60; 9000 cells per well for TT; 2000 cells per well for HeLa, 2000 cells per well for CAL-27, 2000 cells per well for HPEK. […] The readout was taken with a multi-well plate-reader in the fluorescence mode with applying a filter for excitation at 560 nm (band width 10 nm) and for emission at 590 nm (band width 10 nm). […]
The assays were performed in duplicate or more replicates of independent single experiments each containing a six-fold replicate for every condition. For every individual plate, the measured fluorescence intensity values of the conditions with compound treatment were normalized against the corresponding equally weighted arithmetic mean of the fluorescence intensity values of the six DMSO treated control wells in order to obtain the relative values to a baseline level of 1.0. […]

| Compound | activity at 10 µM [1] | equally weighted arithmetic mean (AVE) of six normalized fluorescence intensity values, activity range [2] | weighted arithmetic mean (AVEw) of normalized fluorescence intensity, activity range ([3]; 40 μM) | weighted arithmetic mean (AVEw) of normalized fluorescence intensity ([3]; control RES at 20 μM) |
| --- | --- | --- | --- | --- |
| NC(=O)c1ccc(Oc2ccc(C3CC4CCC3C4)cc2)cc1 (racemic) [Compound 159, (±)-4-(4-(Bicyclo[2.2.1]heptan-2-yl)phenoxy)benzamide] | 0 to 20% | – | – | – |
| O=C(NO)c1ccc(Oc2ccc(C3CCCCC3)cc2)cc1 [Compound 182, 4-(4-cyclohexylphenoxy)-N-hydroxybenzamide] | 0 to 20% | – | – | – |
| CCC(C)(C)c1ccc(Oc2ccc(C(=O)NO)cn2)cc1 [Compound 273, N-hydroxy-6-(4-(tert-pentyl)phenoxy)nicotinamide] | 0 to 20% | – | – | – |
| O=C(NO)c1ccc(Oc2ccc(C3CC4CCC3CC4)cc2)nc1 (stereo not shown) [Compound 287, 6-(4-((1s,4s)-bicyclo[2.2.2]octan-2-yl)phenoxy)-N-hydroxynicotinamide] | 0 to 20% | – | – | – |
| CN(C)C(=O)c1ccc(Oc2ccc(C3CCCCC3)cc2)nc1 [Compound 334, 6-(4-cyclohexylphenoxy)-N,N-dimethylnicotinamide] | 60 to 70% | – | – | – |
| O=C(NO)c1cnc(Oc2ccc(C3CCCCC3)cc2)c(F)c1 [Compound 644, 6-(4-Cyclohexylphenoxy)-5-fluoro-N-hydroxynicotinamide] | 0 to 20% | – | – | – |
| Oc1ccc(C=Cc2cc(O)cc(O)c2)cc1 [RES, resveratrol, reference compound] | 40% | 0.3 ± 0.0 | 0.4 ± 0.0 | 0.9 ± 0.0 |
